Measurements as given in patent publication US20260166039A1 (SCHRÖDINGER, INC., priority 2022, published 2026).

Assays:
[1] = system: phosphorylation of Cdc2 Y15 (Wee1 substrate) in A427 cells; assay: Phosphorylated Cdc2 MSD Electrochemiluminescence Assay; format: cell-based; details: Homo sapiens, A-427, pCDC2 MSD
Method: Phosphorylated Cdc2 MSD Electrochemiluminescence Assay
The effect of Wee1 inhibitors on cellular phosphorylation of the Wee1 substrate Cdc2 was determined using the following protocol:
A total of 40,000 A427 cells in 100 uL culture medium (1640 medium+10% Fetal bovine serum+1% Penicillin-Streptomycin) were plated in 96-well cell culture plates. 3-fold serial dilutions of test compounds were prepared in completed PBS at 25× final concentration. After 20 hours, the plates were removed and 4 μL of each were added to the cells and incubated with shaking for 30 minutes at 37° C., 5% CO2. Each concentration was tested in duplicate. After a total 6 hours incubation, plates were removed and centrifuged for 5 minutes and 100 uL of supernatant from each well was removed. Cells were washed with 200 μL PBS and lysed with 50 μL MSD lysis buffer (Meso Scale Diagnostics) supplied with 1× complete ULTRA cocktail inhibitor (Roche).
To detect phosphorylation of Cdc2 Y15, 30 μL of capture antibody solution (CST catalog #9116S 1:200) was added into each well of the MSD plate (MSD catalog #L15XB-6), sealed and incubated at 4° C. with shaking (450 rpm) overnight. The antibody solution was removed, wells blocked with BSA solution and plates washed three times with PBST, followed by addition of 30 μl of cell lysate per well. After 2 hours of incubation, plates were washed three times with PBST. 30 μL of 1× detection antibody solution (CST catalog #4539S 1:200) was then added to each well and incubated for 1 hour. Plates were washed three times with PBST and 30 μL of 1× secondary antibody solution (MSD, catalog #:R32AB-1, 1:5000) was added to each well and incubated for 1 hour. Plates were washed three times with PBST and 150 μL of 1× Read Buffer T (MSD, catalog #R92TC-1) was added to each well of the MSD plate. The electrochemiluminescence signal was measured on a MESO SECTOR S600 plate reader. The percentage of remaining phosphorylated Cdc2 signal was calculated following the equation below.
[formula] • HC (high control): Cells treated with DMSO • Cpds: Cells treated with test compounds • LC (low control): Cells treated with positive control Wee1 inhibitor

[2] = target: T1, Wee1 kinase domain (Homo sapiens, UniProt P30291); assay: Wee1 Kinase Biochemical Assay (ADP-Glo); details: Wee1 kinase domain, 15 uM ATP, ADP-Glo
T1 construct: Wee1 kinase domain was purchased from Carna (catalog #05-177); purchased Carna 05-177
T1 sequence (P30291 299-569 limits assumed): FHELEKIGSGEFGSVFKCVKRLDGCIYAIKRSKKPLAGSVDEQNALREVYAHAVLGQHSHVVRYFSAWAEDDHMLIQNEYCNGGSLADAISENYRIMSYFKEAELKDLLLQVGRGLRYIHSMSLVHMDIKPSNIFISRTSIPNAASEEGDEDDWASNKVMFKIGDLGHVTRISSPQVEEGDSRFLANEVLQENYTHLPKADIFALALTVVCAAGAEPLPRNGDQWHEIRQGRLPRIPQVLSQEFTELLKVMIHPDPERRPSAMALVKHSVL
In short: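 Kinase domain (1 nM) incubated 4 h at 25 °C with 15 uM ATP and 2 ng/mL Poly(Lys,Tyr 4:1) in 40 mM Tris-HCl, 20 mM MgCl2, 0.1 mg/mL BSA, 2 mM DTT. ADP formation read by ADP-Glo luminescence; percent inhibition normalized to DMSO and saturating reference-inhibitor controls.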

IC50 [1] [nM] | IC50 [2] [nM] | SMILES
100 to 1000 | < 10 | CN1CCC(n2cc(Nc3ncc4c(n3)N(c3cccc(N=S(C)(C)=O)n3)[C@@H]3CC(C)(C)OC[C@]43C)cn2)CC1 (single isomer, unassigned) [Example 102]
< 100 | < 10 | CN1Cc2cc(Nc3ncc4c(n3)N(c3cccc(N=S(C)(C)=O)n3)[C@@H]3CC(C)(C)OC[C@]43C)ccc2C2(CC2)C1 (single isomer, unassigned) [Example 107]
< 100 | < 10 | CNC(=O)c1ccc(Nc2ncc3c(n2)N(c2cccc(N=S(C)(C)=O)n2)[C@@H]2CC(C)(C)OC[C@]32C)cc1 (single isomer, unassigned) [Example 117]
< 100 | < 10 | CN1CCC[C@H]1c1ccc(Nc2ncc3c(n2)N(c2cccc(N=S(C)(C)=O)n2)[C@@H]2CC(C)(C)OC[C@]32C)cc1 (single isomer, unassigned) [Example 126]
< 100 | < 10 | CN1Cc2cc(Nc3ncc4c(n3)N(c3cccc(N=S(C)(C)=O)n3)[C@@H]3CC(C)(C)OC[C@]43C)ccc2C(C)(C)C1 (single isomer, unassigned) [Example 135]
< 100 | < 10 | CN1CCC(c2ccc(Nc3ncc4c(n3)N(c3cccc(N=S(C)(C)=O)n3)[C@@H]3CC(C)(C)OC[C@]43C)cn2)CC1 (single isomer, unassigned) [Example 140]
< 100 | < 10 | Cc1cc(Nc2ncc3c(n2)N(c2cccc(N=S(C)(C)=O)n2)[C@@H]2CC(C)(C)OC[C@]32C)ccc1[C@@H]1CCN(C)C1 (single isomer, unassigned) [Example 145]
100 to 1000 | < 10 | Cc1cc(Nc2ncc3c(n2)N(c2cccc(N=S(C)(C)=O)n2)[C@@H]2CC(C)(C)OC[C@]32C)ccc1[C@H]1CCNC1 (single isomer, unassigned) [Example 149]
100 to 1000 | < 10 | CC1(C)C[C@H]2N(c3cccc(N=S(C)(C)=O)n3)c3nc(Nc4ccc(O[C@@H]5CCNC5)cc4)ncc3[C@@]2(C)CO1 (single isomer, unassigned) [Example 155]
< 100 | < 10 | CN1CC[C@@H](Oc2ccc(Nc3ncc4c(n3)N(c3cccc(N=S(C)(C)=O)n3)[C@@H]3CC(C)(C)OC[C@]43C)cc2)C1 (single isomer, unassigned) [Example 159]
< 100 | < 10 | CC1(C)C[C@H]2N(c3cccc(N=S(C)(C)=O)n3)c3nc(Nc4ccc(C5CNC5)cc4)ncc3[C@@]2(C)CO1 (single isomer, unassigned) [Example 163]
< 100 | < 10 | CN1CC(c2ccc(Nc3ncc4c(n3)N(c3cccc(N=S(C)(C)=O)n3)[C@@H]3CC(C)(C)OC[C@]43C)cc2)C1 (single isomer, unassigned) [Example 165]
< 100 | < 10 | CN1CC[C@@](C)(c2ccc(Nc3ncc4c(n3)N(c3cccc(N=S(C)(C)=O)n3)[C@@H]3CC(C)(C)OC[C@]43C)cc2)C1 (single isomer, unassigned) [Example 169]

Second part, the molecule before the results:

SMILES | IC50 [1] [nM] | IC50 [2] [nM]
CNCc1cccc(N2c3nc(Nc4ccc([C@@H]5CCC(=O)N5C)nc4)ncc3[C@@]3(C)COC(C)(C)C[C@@H]23)n1 (single isomer, unassigned) [Example 96] | 100 to 1000 | < 10
CN1CCC(n2cc(Nc3ncc4c(n3)N(c3cccc(N=S(C)(C)=O)n3)[C@H]3CC(C)(C)OC[C@@]43C)cn2)CC1 (single isomer, unassigned) [Example 101] | 1000 to 10000 | 100 to 1000
Cc1cc(Nc2ncc3c(n2)N(c2cccc(N=S(C)(C)=O)n2)[C@@H]2CC(C)(C)OC[C@]32C)ccc1C1CCN(C)CC1 (single isomer, unassigned) [Example 104] | < 100 | < 10
Cc1cc(Nc2ncc3c(n2)N(c2cccc(N=S(C)(C)=O)n2)[C@@H]2CC(C)(C)OC[C@]32C)ccc1N1CCN(C)CC1 (single isomer, unassigned) [Example 106] | < 100 | < 10
CN1CCc2ccc(Nc3ncc4c(n3)N(c3cccc(N=S(C)(C)=O)n3)[C@@H]3CC(C)(C)OC[C@]43C)cc2C1 (single isomer, unassigned) [Example 109] | < 100 | < 10
CN1CCC(c2ccc(Nc3ncc4c(n3)N(c3cccc(N=S(C)(C)=O)n3)[C@H]3CC(C)(C)OC[C@@]43C)cc2)CC1 (single isomer, unassigned) [Example 112] | < 100 | < 10
Cc1cc(Nc2ncc3c(n2)N(c2cccc(N=S(C)(C)=O)n2)[C@@H]2CC(C)(C)OC[C@]32C)ccc1[C@@H]1COCCN1 (single isomer, unassigned) [Example 114] | < 100 | < 10
Cc1cc(Nc2ncc3c(n2)N(c2cccc(N=S(C)(C)=O)n2)[C@@H]2CC(C)(C)OC[C@]32C)ccc1[C@H]1COCCN1 (single isomer, unassigned) [Example 120] | < 100 | < 10
CN1C[C@H]2C[C@@H]1CN2c1ccc(Nc2ncc3c(n2)N(c2cccc(N=S(C)(C)=O)n2)[C@@H]2CC(C)(C)OC[C@]32C)cc1 (single isomer, unassigned) [Example 122] | < 100 | < 10
CN1C[C@@H]2C[C@H]1CN2c1ccc(Nc2ncc3c(n2)N(c2cccc(N=S(C)(C)=O)n2)[C@@H]2CC(C)(C)OC[C@]32C)cc1 (single isomer, unassigned) [Example 124] | < 100 | < 10
CN1CCC[C@@H]1c1ccc(Nc2ncc3c(n2)N(c2cccc(N=S(C)(C)=O)n2)[C@@H]2CC(C)(C)OC[C@]32C)cc1 (single isomer, unassigned) [Example 127] | < 100 | < 10
CN1CC[C@@H](c2ccc(Nc3ncc4c(n3)N(c3cccc(N=S(C)(C)=O)n3)[C@@H]3CC(C)(C)OC[C@]43C)cc2)C1 (single isomer, unassigned) [Example 129] | < 100 | < 10
CC1(C)C[C@H]2N(c3cccc(N=S(C)(C)=O)n3)c3nc(Nc4ccc([C@@H]5CCNC5)cc4)ncc3[C@@]2(C)CO1 (single isomer, unassigned) [Example 131] | < 100 | < 10
CN1CC[C@H](c2ccc(Nc3ncc4c(n3)N(c3cccc(N=S(C)(C)=O)n3)[C@@H]3CC(C)(C)OC[C@]43C)cc2)C1 (single isomer, unassigned) [Example 133] | 100 to 1000 | < 10
CC1(C)C[C@H]2N(c3cccc(N=S(C)(C)=O)n3)c3nc(Nc4ccc([C@H]5CCNC5)cc4)ncc3[C@@]2(C)CO1 (single isomer, unassigned) [Example 137] | < 100 | < 10
CN(C)C(=O)c1ccc(Nc2ncc3c(n2)N(c2cccc(N=S(C)(C)=O)n2)[C@@H]2CC(C)(C)OC[C@]32C)cc1 (single isomer, unassigned) [Example 141] | < 100 | < 10
Cc1cc(Nc2ncc3c(n2)N(c2cccc(N=S(C)(C)=O)n2)[C@@H]2CC(C)(C)OC[C@]32C)ccc1[C@@H]1CCNC1 (single isomer, unassigned) [Example 143] | 100 to 1000 | < 10
Cc1cc(Nc2ncc3c(n2)N(c2cccc(N=S(C)(C)=O)n2)[C@@H]2CC(C)(C)OC[C@]32C)ccc1[C@H]1CCN(C)C1 (single isomer, unassigned) [Example 147] | < 100 | < 10
CC1(C)C[C@H]2N(c3cccc(N=S(C)(C)=O)n3)c3nc(Nc4ccc(O[C@H]5CCNC5)cc4)ncc3[C@@]2(C)CO1 (single isomer, unassigned) [Example 153] | < 100 | < 10
CN1CC[C@H](Oc2ccc(Nc3ncc4c(n3)N(c3cccc(N=S(C)(C)=O)n3)[C@@H]3CC(C)(C)OC[C@]43C)cc2)C1 (single isomer, unassigned) [Example 157] | < 100 | < 10
[2H]C([2H])([2H])N1CCC(c2ccc(Nc3ncc4c(n3)N(c3cccc(N=S(C)(C)=O)n3)[C@@H]3CC(C)(C)OC[C@]43C)cc2)CC1 (single isomer, unassigned) [Example 162] | < 100 | < 10
CN1CC[C@](C)(c2ccc(Nc3ncc4c(n3)N(c3cccc(N=S(C)(C)=O)n3)[C@@H]3CC(C)(C)OC[C@]43C)cc2)C1 (single isomer, unassigned) [Example 168] | < 100 | < 10
